According to PMC4410942 (Chemistry & Biology, 2015):

Key:
[1] = target: T1, PanD-PanZ complex (PanD-PanZ.AcCoA) (Escherichia coli, UniProt P37613); assay: X-ray crystal structure; format: binding; settings: site on PanZ near the PanD interface; crystals from PEG 3350, bis-Tris propane pH 7.4; one AcCoA per PanZ
T1 construct: heterooctamer (4 PanD + 4 PanZ), about 124 kDa; with Aspartate 1-decarboxylase

PanZ = target: T2, PanZ (Escherichia coli, UniProt P37613); assay: 1H-15N HSQC NMR; format: binding; settings: 0.2 mM PanZ, 50 mM Tris-HCl pH 7.5, 0.1 M NaCl, 0.1 mM DTT, 25 °C
T2 construct: co-purifies with substoichiometric CoA derivatives; monomer
T2 sequence (P37613 1-127): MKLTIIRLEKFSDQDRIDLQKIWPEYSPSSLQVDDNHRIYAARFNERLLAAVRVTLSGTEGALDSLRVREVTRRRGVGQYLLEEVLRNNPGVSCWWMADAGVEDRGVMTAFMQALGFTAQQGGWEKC

[2] = target: T1, PanD-PanZ complex (PanD-PanZ.AcCoA); assay: X-ray crystal structure; format: binding; settings: site on PanZ near the PanD interface; crystals from PEG 3350, bis-Tris propane pH 7.4; one AcCoA per PanZ; remark: listed apart in the source
ADC (activated PanD) = ADC (activated PanD) (Escherichia coli, UniProt P0A790); settings: without PanZ; 25 °C; 2.5 μM ADC; curves with and without PanZ.AcCoA fitted with a shared KM

Row | X-ray crystal structure [1] | X-ray crystal structure [2] | Structure (SMILES) | 1H-15N HSQC NMR (PanZ) | KM (ADC (activated PanD))
1 | PDB ID 4CRZ (PanD(T57V)-PanZ.AcCoA) | 4CS0 (PanD(S25A)-PanZ.AcCoA) | CC(=O)SCCNC(=O)CCNC(=O)[C@H](O)C(C)(C)COP(=O)(O)OP(=O)(O)OC[C@H]1O[C@@H](n2cnc3c(N)ncnc32)[C@H](O)[C@@H]1OP(=O)(O)O [AcCoA] | Addition of excess AcCoA led to simplification of the spectrum (Figure 3D) | –
2 | – | – | N[C@@H](CC(=O)O)C(=O)O [compound 5, L-aspartate] | – | Individual curves are fitted to the Michaelis-Menten curve with a shared value of KM
